Test results: US7468391B2, “Methods for treating retinoid responsive disorders using selective inhibitors of CYP26A and CYP26B” (Allergan, Inc., priority 2003, dated 2008)
Several values for one entry are separate records, joined by “and”; a condition that tells them apart may be missing. Equal values may be shown once. Entries after “also recorded” stand apart in the source; their conditions may differ. Read-outs that look alike come from different tables or passages of the source.

Assays:
[1] = system: hamster flank organ sebaceous gland; experiment: Hamster flank organ sebaceous gland differentiation (model for acne); assay type: in vivo, male golden syrian hamsters; details: for sebaceous gland differentiation in hamster flank organ: oral gavage, 6 days/week for 4 weeks
Experimental: Differentiation of hamster flank organ sebaceous gland is a model system for development of acne. To determine the effectiveness of selective CYP26B inhibitors for treating acne, such inhibitors were tested in this model system. To confirm that this model system can predict the effectiveness of a compound in reducing acne, 13-cis retinoic acid (acutane) was used as a positive control.
(§1) For the hamster model system, male golden syrian hamsters were fed LabDiet#5002 rodent diet and housed individually on a 14/10 hr light/dark cycle. For treatment, the animals were randomized according to body weight and they were also weighed at each treatment so that the drug doses could be adjusted accordingly. The animals were treated daily by oral gavage, 6 days/week for 4 weeks. At the end of treatments, the animals were sacrificed by carbon dioxide inhalation. The flank organs were then excised and spread on a small piece of index card which was placed in a histology cassette for fixation in 10% buffered formaldehyde. The specimen was divided into 5 equally spaced portions to make paraffin blocks and one 5-micrometer H&E sections was prepared from each block. The two sections that contained the most sebaceous glands were used to determine the average acini area of the flank organ. A video camera attached to a standard microscope with the 4× objective was used to capture the images of the sebaceous glands. Computer programs Videoshop and NIH Image 1.63 were used to quantify the acini areas. All the recognizable sebaceous glands in the two sections were analyzed and the means were derived for comparison among various treatments. In all studies, blood samples were also collected for determining the levels of serum triglyceride using a triglyceride GPO Trinder kit from Sigma Chemicals (St. Louis, Mo.).

[2] = assay type: in vivo
Experimental: as §1
Experimental results showing the effect of various retinoid compounds on differentiation of sebaceous gland in […] flank organ were generated.

hacyp26a = experiment: Taqman RT-PCR of CYP26A expression in hamster flank organ sebaceous gland; assay type: in vivo
Experimental: (§2) Because CYP26 functions in cells to reduce retinoic acid receptor signaling, the effect of inhibiting CYP26 to increase retinoic acid receptor signaling, and thereby reduce differentiation of hamster sebaceous gland differentiation, was examined. The expression of CYP26A and CYP26B in hamster flank organ sebaceous gland was determined using Taqman RT-PCR. Hamsters were treated as described above and sacrificed at various time points (1 day to 3 weeks). The flank organs were excised and placed under a dissecting microscope. Sebaceous glands were removed and put into liquid nitrogen immediately. RNAs were isolated from the glands using Trizol reagents (Invitrogen; San Diego, Calif.) as described by the manufacturer. The RNAs were treated with DNase to remove contaminating genomic DNAs and further purified with the DNA-free kit (Ambion; Austin, Tex.). Quantitative RT-PCR was performed on an ABI 7700 machine using Invitrogen's Platinum qRT-PCR kit with CYP26-specific primers and probes.

hacyp26b = experiment: Taqman RT-PCR of CYP26B expression in hamster flank organ sebaceous gland; assay type: in vivo
Experimental: as §2

human patients = details: Kuijpers, et al. (1998); cited from earlier work

## CC1=C(/C=C/C(C)=C\C=C\C(C)=C/C(=O)O)C(C)(C)CCC1=O [4-oxo-13-cis RA]
[1]
  sebaceous gland differentiation in hamster flank organ: appeared to be more effective
[2]; hamster flank organ study
  toxicity: lower toxicity levels

## CC1=C(/C=C/C(C)=C/C=C/C(C)=C\C(=O)O)C(C)(C)CCC1 [13-cis retinoic acid]
hacyp26a; HFO-9, 1w, listed as 13cisRA
  hacyp26a Ct: 29.8 and 29.6
  hacyp26a Relative to Veh: 12.1× and 13.9×
hacyp26a; HFO-9, 2w
  hacyp26a Ct: 30.1
  hacyp26a Relative to Veh: 9.8×
hacyp26a; HFO-9, 3w, listed as 13cisRA
  hacyp26a Ct: 33 and 31.9
hacyp26a; HFO-9, 4d
  hacyp26a Ct: 28.1
  hacyp26a Relative to Veh: 22.6×
hacyp26a; Table 2
  CYP26A expression in hamster flank sebaceous gland: induced
[1]
  sebaceous gland differentiation in hamster flank organ: effective in reducing sebaceous gland differentiation; also recorded: appeared to be more effective
[2]; hamster, in vivo
  toxicity: lower toxicity levels
hacyp26b; HFO-9, 1w, listed as 13cisRA
  hacyp26b Ct: 30.5 and 31.8
hacyp26b; HFO-9, 2w
  hacyp26b Ct: 34.1
  hacyp26b Relative to veh: 0.6×
hacyp26b; HFO-9, 3w, listed as 13cisRA
  hacyp26b Ct: 36.7 and 35.7
  hacyp26b Relative to veh: 0.1× and 0.2×
hacyp26b; HFO-9, 4d
  hacyp26b Ct: 30.6
  hacyp26b Relative to veh: 13×
hacyp26b; Table 2
  CYP26B expression in hamster flank sebaceous gland: induced

## CCc1ccc(C2=CC(C)(C)Sc3ccc(C#Cc4ccc(C(=O)O)cc4)cc32)cc1 [AGN194310]
[1]; given with 13-cis retinoic acid, FIG. 2
  effect on the 13-cis retinoic acid-induced reduction in sebaceous gland differentiation: blocked the effect of 13-cis retinoic acid treatment on sebaceous gland differentiation

## C/C(=C\c1ccc(C(=O)O)cc1)c1ccc2c(c1)C(C)(C)CCC2(C)C [TTNPB]
[2]; hamster, in vivo
  toxicity: observed at effective doses

## Clc1cccc(C(c2ccc3[nH]cnc3c2)n2ccnc2)c1 (centres unmarked) [liarozole]
Human patients
  effect of treatment in human patients: amelioration of psoriasis
